The text below walks through data of patent US20230348473A1, “SUBSTITUTED PYRIDINES AS PARP1 INHIBITORS” (Xinthera, Inc., priority 2022, published 2023).

As usually defined, the IC50 is the concentration at which inhibition is half-maximal. Read a low IC50 as higher potency.

One assay has as its target PARP1 (Homo sapiens (Human), UniProt P09874). Briefly: Biochemical fluorescence polarization (FP) assay, PARPi-FL displacement, PARP1. In kind it is binding. The following applies: 20 nM protein, 3 nM PARPi-FL, 4 h. The procedure:
(§1) To characterize our compounds, we utilized an assay measuring the displacement of a commercially available fluorescently labeled PARP 1/2 inhibitor (PARPi-FL, Tocris Biosciences, #6461) as exemplified in assays performed in WO2014/064149 and WO2021/013735A1. The assay was performed utilizing the following method: Compounds were dissolved in DMSO an Echo550 liquid handler was utilized to make serial dilations in the desired concentration range in Optiplate-384F plates. 100% DMSO was used for the high (with protein) and low (without protein) control samples. 20 nL of compound or DMSO alone was added to individual assay plate wells. […] The PARPi-FL was then added at a final concentration of 3 nM. The assay plate is centrifuged at 1000 rpm for 1 min and incubated for 4 h at room temperature. […] XLFit (equation 201) is used to calculate a reported IC50 for each compound.

The target of a further assay is PARP2 (Homo sapiens (Human), UniProt Q9UGN5). Nature of the assay: Biochemical fluorescence polarization (FP) assay, PARPi-FL displacement, PARP2. In kind it is binding. The conditions noted are these: 20 nM protein, 3 nM PARPi-FL, 4 h. The procedure:
as §1
Background: In fluorescence polarisation assays a small probe gives low polarisation when free and higher when bound to something large.

Sequence of PARP2 (Q9UGN5 whole entry): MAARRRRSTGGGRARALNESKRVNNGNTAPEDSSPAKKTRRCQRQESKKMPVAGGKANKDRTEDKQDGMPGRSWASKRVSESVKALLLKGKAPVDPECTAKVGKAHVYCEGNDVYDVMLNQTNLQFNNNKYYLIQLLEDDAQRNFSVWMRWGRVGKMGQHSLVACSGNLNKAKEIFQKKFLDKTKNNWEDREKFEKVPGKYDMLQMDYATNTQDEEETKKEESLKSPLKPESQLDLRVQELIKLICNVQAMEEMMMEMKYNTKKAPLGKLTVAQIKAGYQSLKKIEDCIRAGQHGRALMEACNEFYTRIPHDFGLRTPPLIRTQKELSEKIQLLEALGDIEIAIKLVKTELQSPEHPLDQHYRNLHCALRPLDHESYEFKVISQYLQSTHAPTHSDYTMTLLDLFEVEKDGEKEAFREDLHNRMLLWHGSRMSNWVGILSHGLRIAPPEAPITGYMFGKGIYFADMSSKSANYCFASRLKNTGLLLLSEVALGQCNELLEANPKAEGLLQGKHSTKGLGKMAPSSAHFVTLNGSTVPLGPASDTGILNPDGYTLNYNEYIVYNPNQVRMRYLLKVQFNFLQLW
Sequence of PARP1 (P09874 whole entry): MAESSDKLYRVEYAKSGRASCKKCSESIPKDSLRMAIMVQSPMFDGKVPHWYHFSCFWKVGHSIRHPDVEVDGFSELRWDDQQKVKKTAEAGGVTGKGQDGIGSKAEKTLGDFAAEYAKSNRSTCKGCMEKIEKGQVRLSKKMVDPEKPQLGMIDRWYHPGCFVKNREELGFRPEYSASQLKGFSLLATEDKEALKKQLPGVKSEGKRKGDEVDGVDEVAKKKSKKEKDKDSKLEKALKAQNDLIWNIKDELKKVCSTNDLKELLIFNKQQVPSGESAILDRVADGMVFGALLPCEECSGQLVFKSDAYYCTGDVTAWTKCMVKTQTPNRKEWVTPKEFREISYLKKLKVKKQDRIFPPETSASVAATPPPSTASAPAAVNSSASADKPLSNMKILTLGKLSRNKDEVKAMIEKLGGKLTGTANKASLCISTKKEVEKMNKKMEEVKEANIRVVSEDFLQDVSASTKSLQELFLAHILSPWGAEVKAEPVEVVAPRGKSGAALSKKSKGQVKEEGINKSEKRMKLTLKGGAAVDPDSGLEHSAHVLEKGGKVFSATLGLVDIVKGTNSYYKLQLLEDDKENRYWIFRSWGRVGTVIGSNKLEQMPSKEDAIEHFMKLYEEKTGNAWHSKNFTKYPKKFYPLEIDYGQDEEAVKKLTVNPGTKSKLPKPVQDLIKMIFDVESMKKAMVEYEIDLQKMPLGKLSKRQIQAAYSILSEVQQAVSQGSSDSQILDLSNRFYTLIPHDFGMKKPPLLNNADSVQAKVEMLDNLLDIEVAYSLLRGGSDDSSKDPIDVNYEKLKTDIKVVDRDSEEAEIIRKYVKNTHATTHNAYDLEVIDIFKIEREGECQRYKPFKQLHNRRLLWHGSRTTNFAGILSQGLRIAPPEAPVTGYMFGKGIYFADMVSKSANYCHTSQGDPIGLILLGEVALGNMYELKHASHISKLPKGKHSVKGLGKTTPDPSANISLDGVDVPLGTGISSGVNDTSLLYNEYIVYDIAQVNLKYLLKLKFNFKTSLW

Consider `O=C(NC1CC1)c1ccc(N2CCN(Cc3ccc4c([nH]c(=O)c5ccnn54)c3F)CC2)c(F)n1` [Example 3], for which the results for the concentration for half-maximal inhibition (IC50) on PARP1 and at PARP2 were 22 nM and above 100000 nM, respectively.
Regarding `Cc1cc2c(=O)[nH]c3c(F)c(CN4CCN(c5ccc(C(=O)NC6CC6)nc5F)CC4)ccc3n2n1` [Example 4], the half-inhibitory concentration (IC50) on PARP1 is 16 nM; on PARP2, above 100000 nM.
For `CNC(=O)c1ccc(N2CCN(Cc3ccc4c([nH]c(=O)c5cc(C)nn54)c3F)CC2)c(F)n1` [Example 5], the IC50 at PARP1 was 41 nM; at PARP2, above 100000 nM.
For `CNC(=O)c1ccc(N2CCN(Cc3ccc4c([nH]c(=O)c5ccoc54)c3F)CC2)c(F)n1` [Example 6, 6-fluoro-5-[4-({6-fluoro-4-oxo-5H-furo[3,2-c]quinolin-7-yl}methyl)piperazin-1-yl]-N-methylpyridine-2-carboxamide] the same measures were 21 nM and above 100000 nM.
Consider `CNC(=O)c1ccc(N2CCN(Cc3ccc4c([nH]c(=O)n5cccc45)c3F)CC2)c(F)n1` [Example 7, 6-fluoro-5-[4-({7-fluoro-5-oxo-6H-pyrrolo[1,2-c]quinazolin-8-yl}methyl)piperazin-1-yl]-N-methylpyridine-2-carboxamide], for which the figures for the concentration for half-maximal inhibition (IC50) on PARP1 and on PARP2 were 18 nM and above 100000 nM, respectively.
Turning to `O=C(NCC(F)F)c1ccc(N2CCN(Cc3ccc4c([nH]c(=O)c5ccoc54)c3F)CC2)c(F)n1` [Example 11], the IC50 on PARP1 is 14 nM; at PARP2, above 100000 nM.
Regarding `Cc1cc2c(=O)[nH]c3c(F)c(CN4CCN(c5ccc(C(=O)NCC(F)F)nc5F)CC4)ccc3n2n1` [Example 13], the half-inhibitory concentration (IC50) at PARP1 is 25 nM; on PARP2 it was above 100000 nM.
For `O=C(NC1CC1)c1ccc(N2CCN(Cc3ccc4c([nH]c(=O)c5ccoc54)c3F)CC2)c(F)n1` [Example 14] the same measures were 10 nM and above 100000 nM.
Turning to `O=C(NCC(F)F)c1ccc(N2CCN(Cc3ccc4c5c(c(=O)[nH]c4c3F)CCO5)CC2)c(F)n1` [Example 15], the results for the IC50 on PARP1 and on PARP2 were 12 nM and above 100000 nM, respectively.
On to `COCCNC(=O)c1ccc(N2CCN(Cc3ccc4c([nH]c(=O)c5cc(C)nn54)c3F)CC2)c(F)n1` [Example 17], for which the IC50 at PARP1 was 14 nM; at PARP2, above 100000 nM.
`CNC(=O)c1ccc(N2CCN(Cc3ccc4c([nH]c(=O)c5cnn(C)c54)c3F)CC2)c(F)n1` [Example 19, 6-fluoro-5-[4-({6-fluoro-1-methyl-4-oxo-5H-pyrazolo[4,3-c]quinolin-7-yl}methyl)piperazin-1-yl]-N-methylpyridine-2-carboxamide]: the half-inhibitory concentration (IC50) on PARP1 is 100 nM; on PARP2, above 100000 nM.
As to `CNC(=O)c1ccc(N2CCN(Cc3ccc4c([nH]c(=O)c5cn(C)nc54)c3F)CC2)c(F)n1` [Example 20, 6-fluoro-5-[4-({6-fluoro-2-methyl-4-oxo-5H-pyrazolo[4,3-c]quinolin-7-yl}methyl)piperazin-1-yl]-N-methylpyridine-2-carboxamide], the half-inhibitory concentration (IC50) was 11 nM at PARP1 and above 100000 nM at PARP2.
Take `CNC(=O)c1ccc(N2CCN(Cc3ccc4c([nH]c(=O)c5c(C)cnn54)c3F)CC2)c(F)n1` [Example 23]: the IC50 at PARP1 is 26 nM; on PARP2, above 100000 nM.
For `CNC(=O)c1ccc(N2CCN(Cc3ccc4c5c(c(=O)[nH]c4c3F)CCO5)CC2)cn1` [Example 26] the same measures were 13 nM and above 100000 nM.
Turning to `CNC(=O)c1ccc(N2CCN(Cc3ccc4c([nH]c(=O)c5c(F)cnn54)c3F)CC2)c(F)n1` [Example 28, 5-[4-({3,6-difluoro-4-oxo-5H-pyrazolo[1,5-a]quinoxalin-7-yl}methyl)piperazin-1-yl]-6-fluoro-N-methylpyridine-2-carboxamide], the IC50 on PARP1 is 10 nM; on PARP2, above 100000 nM.
